Measurements as given in US9617244B2, “Antibacterial quinoline derivatives” (JANSSEN PHARMACEUTICA NV, priority 2012, dated 2017).
Where a name gives a salt, the structure may show the parent alone.

With `COc1nc2ccc(Br)cc2cc1C(c1cccc(Cl)c1)C1(O)CCNC(c2ccc(F)cc2C)C1` (stereo not shown) (as salt: fumarate) [Compound 150] as the compound, how does the melting point read?
Its melting point is 184 °C.

Which melting point does the source give for `COc1nc2ccc(Br)cc2cc1C(c1cccc(Cl)c1)C1(O)CCNC(c2ccc(F)cc2C)C1` (stereo not shown) (as salt: fumarate) [Compound 151] here?
The melting point was 156 °C.

With `COc1nc2ccc(Br)cc2cc1C(c1cccc(Cl)c1)C1(O)CCNC(c2ccc(F)cc2C)C1` (stereo not shown) (as salt: fumarate) [Compound 152] as the compound, how does the melting point read?
The melting point was 170 °C.

With `COc1nc2ccc(SC)cc2cc1C(c1cccc(Cl)c1)C1(O)CCNC(c2ccc(F)cc2C)C1` (stereo not shown) (as salt: fumarate) [Compound 164] as the compound, how does the melting point read?
Its melting point is 170 °C.

With `COc1nc2ccc(SC)cc2cc1C(c1cccc(Cl)c1)C1(O)CCNC(c2ccc(F)cc2C)C1` (stereo not shown) (as salt: fumarate) [Compound 165] as the compound, how does the melting point read?
The melting point was 168 °C.

For `COc1nc2ccc(SC)cc2cc1C(c1ccccc1)C1(O)CCNC(c2ccc(F)cc2C)C1` (stereo not shown) (as salt: fumarate) [Compound 170], which melting point is on record?
Its melting point is 176 °C.

Which melting point does the source give for `COc1nc2ccc(S(C)(=O)=O)cc2cc1C(c1ccc(Cl)cc1)C1(O)CCNC(c2ccc(F)cc2C)C1` (stereo not shown) (as salt: fumarate) [Compound 201] here?
The melting point was 195 °C.

With `CS(=O)(=O)c1ccc2[nH]c(=O)c(C(c3ccc(Cl)cc3)C3(O)CCNC(Cc4ccc(F)c(F)c4)C3)cc2c1` (stereo not shown) (as salt: fumarate) [Compound 214] as the compound, how does the melting point read?
The melting point was 213 °C.

With `COc1nc2ccc(SC)cc2cc1C(c1ccc(Cl)cc1)C1(O)CCNCC1Cc1cccc(F)c1` (stereo not shown) (as salt: fumarate) [Compound 284] as the compound, how does the melting point read?
The melting point was 163 °C.

With `COc1nc2ccc(SC)cc2cc1C(c1ccc(Cl)cc1)C1(O)CCNCC1Cc1cccc(F)c1` (stereo not shown) (as salt: fumarate) [Compound 286] as the compound, how does the melting point read?
The melting point was 177 °C.

Which melting point does the source give for `COc1nc2ccc(SC)cc2cc1C(c1ccc(Cl)cc1)C1(O)CCNC(CC2CCCCC2)C1` (stereo not shown) (as salt: fumarate) [Compound 288] here?
The melting point was 150 °C.

For `COc1nc2ccc(F)cc2cc1C(c1ccc(Cl)cc1)C1(O)CCNC(c2ccc(F)cc2C)C1` (stereo not shown) (as salt: fumarate) [Compound 330], which melting point is on record?
Its melting point is 170 °C.

For `COc1nc2ccc(F)cc2cc1C(c1ccc(Cl)cc1)C1(O)CCNC(c2ccc(F)cc2C)C1` (stereo not shown) (as salt: fumarate) [Compound 331], which melting point is on record?
Its melting point is 166 °C.

Which melting point does the source give for `COc1nc2ccc(F)cc2cc1C(c1ccc(Cl)cc1)C1(O)CCNC(c2ccc(F)cc2C)C1` (stereo not shown) (as salt: fumarate) [Compound 332] here?
Its melting point is 164 °C.

With `COc1nc2ccc(Cl)cc2cc1C(c1ccc(Cl)cc1)C1(O)CCNC(Cc2ccc(F)cc2)C1` (stereo not shown) (as salt: fumarate) [Compound 345] as the compound, how does the melting point read?
Its melting point is 152 to 154 °C.

Which melting point does the source give for `COc1nc2ccc(Cl)cc2cc1C(c1ccc(Cl)cc1)C1(O)CCNC(Cc2ccc(F)cc2)C1` (stereo not shown) (as salt: fumarate) [Compound 346] here?
Its melting point is 151 to 153 °C.

With `COc1nc2ccc(Cl)cc2cc1C(c1ccc(Cl)cc1)C1(O)CCNC(Cc2ccc(F)cc2)C1` (stereo not shown) (as salt: fumarate) [Compound 347] as the compound, how does the melting point read?
Its melting point is 148 to 150 °C.

Which melting point does the source give for `COc1nc2ccc(Cl)cc2cc1C(c1ccc(Cl)cc1)C1(O)CCNC(Cc2ccc(F)cc2)C1` (stereo not shown) (as salt: fumarate) [Compound 348] here?
Its melting point is 145 °C.

For `COc1nc2ccc(Cl)cc2cc1C(c1ccc(SC)cc1)C1(O)CCNC(c2ccc(F)cc2C)C1` (stereo not shown) (as salt: fumarate) [Compound 353], which melting point is on record?
The melting point was 166 to 168 °C.

With `COc1nc2ccc(Cl)cc2cc1C(c1ccc(SC)cc1)C1(O)CCNC(c2ccc(F)cc2C)C1` (stereo not shown) (as salt: fumarate) [Compound 354] as the compound, how does the melting point read?
Its melting point is 168 to 170 °C.

With `COc1nc2ccc(Cl)cc2cc1C(c1ccc(S(C)(=O)=O)cc1)C1(O)CCNC(c2ccc(F)cc2C)C1` (stereo not shown) (as salt: fumarate) [Compound 368] as the compound, how does the melting point read?
The melting point was 144 °C.

With `COc1nc2ccc(Cl)cc2cc1C(c1ccc(S(C)(=O)=O)cc1)C1(O)CCNC(c2ccc(F)cc2C)C1` (stereo not shown) (as salt: fumarate) [Compound 369] as the compound, how does the melting point read?
The melting point was 138 °C.

Which melting point does the source give for `COc1nc2ccccc2cc1C(c1ccccc1)C1(O)CCNC(Cc2ccccc2)C1` (stereo not shown) (as salt: fumarate) [Compound 399] here?
Its melting point is 222 to 224 °C.

For `COc1nc2ccccc2cc1C(c1ccccc1)C1(O)CCNC(Cc2ccccc2)C1` (stereo not shown) (as salt: fumarate) [Compound 400], which melting point is on record?
Its melting point is 157 °C.

With `COc1nc2ccccc2cc1C(c1ccccc1)C1(O)CCNC(Cc2ccccc2)C1` (stereo not shown) (as salt: fumarate) [Compound 401] as the compound, how does the melting point read?
Its melting point is 240 °C.

For `COc1nc2ccccc2cc1C(c1ccccc1)C1(O)CCNC(Cc2ccccc2)C1` (stereo not shown) (as salt: fumarate) [Compound 402], which melting point is on record?
The melting point was 175 to 177 °C.

Which melting point does the source give for `COc1nc2ccc(Cl)cc2cc1C(c1ccc(Cl)cc1)C1(O)CCNC(c2ccccc2)C1` (stereo not shown) (as salt: fumarate) [Compound 403] here?
Its melting point is 176 °C.

For `COc1nc2ccc(Cl)cc2cc1C(c1ccc(Cl)cc1)C1(O)CCNC(c2ccccc2)C1` (stereo not shown) (as salt: fumarate) [Compound 404], which melting point is on record?
Its melting point is 168 °C.

Which melting point does the source give for `COc1nc2ccc(Cl)cc2cc1C(c1ccc(Cl)cc1)C1(O)CCNC(c2ccccc2)C1` (stereo not shown) (as salt: fumarate) [Compound 405] here?
The melting point was 184 °C.

With `COc1ccc2nc(OC)c(C(c3ccccc3)C3(O)CCNC(Cc4ccccc4)C3)cc2c1` (stereo not shown) (as salt: fumarate) [Compound 408] as the compound, how does the melting point read?
The melting point was 135 °C.

For `COc1nc2ccc(Cl)cc2cc1C(c1ccc(Cl)cc1)C1(O)CCNCC1c1ccccc1` (stereo not shown) (as salt: fumarate) [Compound 409], which melting point is on record?
Its melting point is 190 °C.

Which melting point does the source give for `COc1nc2ccc(Cl)cc2cc1C(c1ccc(Cl)cc1)C1(O)CCNCC1c1ccccc1` (stereo not shown) (as salt: fumarate) [Compound 410] here?
The melting point was 155 °C.

For `COc1nc2ccc(Cl)cc2cc1C(c1ccc(Cl)cc1)C1(O)CCNCC1c1ccccc1` (stereo not shown) (as salt: fumarate) [Compound 411], which melting point is on record?
The melting point was 168 °C.

For `COc1nc2ccc(Cl)cc2cc1C(c1ccc(Cl)cc1)C1(O)CCNCC1c1ccccc1` (stereo not shown) (as salt: fumarate) [Compound 412], which melting point is on record?
Its melting point is 166 °C.

For `COc1nc2ccccc2cc1C(c1ccccc1)C1(O)CCNC(c2ccccc2)C1` (stereo not shown) (as salt: fumarate) [Compound 413], which melting point is on record?
Its melting point is > 250 °C.

For `COc1nc2ccccc2cc1C(c1ccccc1)C1(O)CCNC(c2ccccc2)C1` (stereo not shown) (as salt: fumarate) [Compound 414], which melting point is on record?
The melting point was 196 °C.

For `COc1nc2ccccc2cc1C(c1ccccc1)C1(O)CCNC(c2ccccc2)C1` (stereo not shown) (as salt: fumarate) [Compound 415], which melting point is on record?
The melting point was 160 °C.

For `COc1nc2ccccc2cc1C(c1ccccc1)C1(O)CCNC(c2ccc(F)cc2C)C1` (stereo not shown) (as salt: fumarate) [Compound 416], which melting point is on record?
Its melting point is 160 to 162 °C.

Which melting point does the source give for `COc1nc2ccc(F)cc2cc1C(c1ccc(S(C)(=O)=O)cc1)C1(O)CCNC(c2ccc(F)cc2C)C1` (stereo not shown) (as salt: fumarate) [Compound 418] here?
Its melting point is 164 to 166 °C.

With `COc1nc2ccc(Br)cc2cc1C(c1cccnc1)C1(O)CCNC(Cc2ccccc2)C1` (stereo not shown) (as salt: fumarate) [Compound 427] as the compound, how does the melting point read?
The melting point was 174 °C.

For `COc1nc2ccc(Br)cc2cc1C(c1cccnc1)C1(O)CCNC(Cc2ccccc2)C1` (stereo not shown) (as salt: fumarate) [Compound 428], which melting point is on record?
The melting point was 217 °C.

For `COc1nc2ccc(Br)cc2cc1C(n1cccn1)C1(O)CCNC(Cc2ccccc2)C1` (stereo not shown) (as salt: fumarate) [Compound 429], which melting point is on record?
The melting point was > 260 °C.

Which melting point does the source give for `COc1nc2ccc(Cl)cc2cc1C(c1ccc(Cl)cc1)C1(O)CCNC(c2ccc3ccccc3c2)C1` (stereo not shown) (as salt: fumarate) [Compound 430] here?
Its melting point is 184 °C.

With `COc1nc2ccc(Cl)cc2cc1C(c1ccc(Cl)cc1)C1(O)CCNC(c2ccc3ccccc3c2)C1` (stereo not shown) (as salt: fumarate) [Compound 431] as the compound, how does the melting point read?
Its melting point is 178 °C.

With `COc1nc2ccc(Cl)cc2cc1C(c1ccc(Cl)cc1)C1(O)CCNC(c2ccc3ccccc3c2)C1` (stereo not shown) (as salt: fumarate) [Compound 432] as the compound, how does the melting point read?
Its melting point is 167 °C.

Which melting point does the source give for `COc1nc2ccccc2cc1C(c1ccccc1)C1(O)CCNC(c2ccc(F)cc2C)C1` (stereo not shown) (as salt: fumaric acid salt) [Compound 16] here?
The melting point was 166 to 168 °C.

Which melting point does the source give for `O=c1[nH]c2ccc(Br)cc2cc1C(c1ccc(Cl)cc1)C1(O)CCNC(Cc2ccc(F)c(F)c2)C1` (stereo not shown) (as salt: hydrochloride) [Compound 40] here?
The melting point was 224 °C.

With `O=c1[nH]c2ccc(Br)cc2cc1C(c1ccc(Cl)cc1)C1(O)CCNCC1Cc1cccc(F)c1` (stereo not shown) (as salt: hydrochloride) [Compound 49] as the compound, how does the melting point read?
Its melting point is 183 °C.

With `O=c1[nH]c2ccc(Br)cc2cc1C(c1cccc(Cl)c1)C1(O)CCNC(Cc2ccccc2)C1` (stereo not shown) (as salt: hydrochloride) [Compound 85] as the compound, how does the melting point read?
Its melting point is > 260 °C.

For `Cc1cc(F)ccc1C1CC(O)(C(c2ccc(Cl)cc2)c2cc3cc(Br)ccc3[nH]c2=O)CCN1` (stereo not shown) (as salt: hydrochloride) [Compound 106], which melting point is on record?
The melting point was > 250 °C.

Which melting point does the source give for `O=c1[nH]c2ccc(Br)cc2cc1[C@@H](c1ccc(Cl)cc1)[C@]1(O)CCNC(Cc2ccccc2)C1` (stereo partly shown) (as salt: hydrochloride) [Compound 121] here?
The melting point was > 260 °C.

For `O=c1[nH]c2ccc(Br)cc2cc1C(c1ccc(Cl)cc1)C1(O)CCNC(Cc2ccc(F)c(F)c2)C1` (stereo not shown) (as salt: hydrochloride) [Compound 126], which melting point is on record?
Its melting point is > 260 °C.

With `CC1CC(O)(C(c2ccc(Cl)cc2)c2cc3cc(Br)ccc3[nH]c2=O)CCN1` (stereo not shown) (as salt: hydrochloride) [Compound 129] as the compound, how does the melting point read?
The melting point was 240 °C.

Which melting point does the source give for `CC1CC(O)(C(c2ccc(Cl)cc2)c2cc3cc(Br)ccc3[nH]c2=O)CCN1` (stereo not shown) (as salt: hydrochloride) [Compound 130] here?
Its melting point is 200 °C.

With `CC1CC(O)(C(c2ccc(Cl)cc2)c2cc3cc(Br)ccc3[nH]c2=O)CCN1` (stereo not shown) (as salt: hydrochloride) [Compound 131] as the compound, how does the melting point read?
Its melting point is 241 °C.

Which melting point does the source give for `CC1CC(O)(C(c2ccc(Cl)cc2)c2cc3cc(Br)ccc3[nH]c2=O)CCN1` (stereo not shown) (as salt: hydrochloride) [Compound 132] here?
The melting point was 244 °C.

Which melting point does the source give for `O=c1[nH]c2ccc(Br)cc2cc1C(c1ccc(Cl)cc1)C1(O)CCNC(Cc2ccc(F)c(F)c2)C1` (stereo not shown) (as salt: hydrochloride) [Compound 134] here?
The melting point was 233 °C.

Which melting point does the source give for `Cc1cc(F)ccc1C1CC(O)(C(c2cccc(Cl)c2)c2cc3cc(Br)ccc3[nH]c2=O)CCN1` (stereo not shown) (as salt: hydrochloride) [Compound 135] here?
Its melting point is > 250 °C.
